{"source": "patent US4882319A", "about": "“Phosphonic acid substituted aromatic steroids as inhibitors of steroid 5-α-reductase” (SmithKline Beckman Corporation, priority 1988, dated 1989)", "key": {"[1]": {"molecular_target": "5-α-Reductase", "conditions": "cited from earlier work; for Ki: literature value; for Ki / mode of inhibition (Reversible / Irreversible): Table I; for mode of inhibition (Reversible / Irreversible) / time dependence of 5-α-reductase inhibition: literature"}, "[2]": {"system": "human steroid 5-α-reductase", "conditions": "read-out: Michaelis-Menton constant (Km) of the substrate (testosterone); determined in a separate experiment"}, "[3]": {"molecular_target": "T1, human steroid 5-α-reductase (Homo sapiens, UniProt P31213)", "T1 construct": "Prostatic particles were obtained by differential centrifugation; from tissue; host or cells: hyperplastic human prostate, washed 140,000×g particulate fraction", "T1 sequence (P31213 1-254)": "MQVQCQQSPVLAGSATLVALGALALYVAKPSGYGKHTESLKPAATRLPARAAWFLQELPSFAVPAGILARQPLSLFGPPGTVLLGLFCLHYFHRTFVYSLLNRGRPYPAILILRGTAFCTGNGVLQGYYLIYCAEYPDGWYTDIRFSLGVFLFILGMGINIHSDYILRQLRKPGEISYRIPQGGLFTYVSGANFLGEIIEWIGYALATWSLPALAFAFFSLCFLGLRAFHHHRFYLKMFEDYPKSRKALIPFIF", "assay": "biochemical", "experimental": "A compound of the invention, 17β-(N,N-diisopropylcarboxamide)-estr-1,3,5(10)-triene-3-phosphonic acid, was tested for potency in inhibiting human steroid 5-α-reductase using tissue from hyperplastic human prostates. In determining potency in inhibiting the human enzyme, the following procedure was employed:\nFrozen human prostates were thawed and minced into small pieces (5 mm^3). The tissue was homogenized in 3 to 5 volumes of 20 mM potassium phosphate buffer, pH 6.5, containing 0.33M sucrose, 1 mM dithiothreitol, and 50 μM NADPH with a Brinkmann Polytron (Sybron Corporation, Westbury, N.Y.). The solution was subjected to sonication for 3 to 5 minutes with a Sonifier (Branson Sonic Power Co.) followed by hand homogenization in a glass-to-glass Dounce homogenizer (Kontes Glass Company, Vineland, N.J.). […]\nA constant amount of [^14 C]-testosterone (52 to 55 mCi/mmol, New England Nuclear, Boston, Mass.) in ethanol and varying amounts of the potential inhibitor in ethanol were deposited in test tubes and concentrated to dryness in a SAVANT Speed Vac. […] The radiochemical content in the bands of the substrate and the products was determined with a BIOSCAN Imaging Scanner (Bioscan, Inc., Washington, D.C.). The percent of recovered radiolabel converted to product was calculated, from which enzyme activity was determined. […]"}}, "note": "Like-named read-outs stand apart in the source and are kept apart here.", "data": [{"smiles": "CC(CO)C1CCC2C3CC[C@H]4C(=[N+]=[N-])C(=O)CCC4(C)C3CCC12C", "note": "(some centres unmarked) [(3)]", "values": [{"measurement": "Ki", "setting": "[1]; unit inferred", "result": 35, "unit": "nM"}, {"measurement": "mode of inhibition (Reversible / Irreversible)", "setting": "[1]", "result": "Irreversible"}, {"measurement": "time dependence of 5-α-reductase inhibition", "setting": "[1]", "result": "potent, time-dependent inhibitor"}]}, {"smiles": "CCN(CC)C(=O)C1CCC2C3CC[C@H]4N(C)C(=O)CCC4(C)C3CCC12C", "note": "(some centres unmarked) [(4)]", "values": [{"measurement": "Ki", "setting": "[1]", "result": 5, "unit": "nM"}, {"measurement": "mode of inhibition (Reversible / Irreversible)", "setting": "[1]", "result": "Reversible"}]}, {"smiles": "C[C@]12CC[C@H]3[C@@H](CCC4=CC(=O)CC[C@@]43C)[C@@H]1CC[C@@H]2O", "note": "[testosterone]", "values": [{"measurement": "Km", "setting": "[2]", "result": 4.5, "unit": "µM"}]}, {"smiles": "C=C1CC2C(CCC3(C)C2CC[C@]3(OC(C)=O)C(C)=O)C2(C)CCC(=O)C=C12", "note": "(some centres unmarked) [(5)]", "values": [{"measurement": "Ki", "setting": "[1]", "result": 1250, "unit": "nM"}, {"measurement": "mode of inhibition (Reversible / Irreversible)", "setting": "[1]", "result": "Irreversible"}, {"measurement": "time dependence of 5-α-reductase inhibition", "setting": "[1]", "result": "time-dependent inactivator"}]}, {"smiles": "CC12CCC(=O)C=C1CCC1C2CCC2(C)C1CC[C@@H]2C(=O)O", "note": "(some centres unmarked) [(1)]", "values": [{"measurement": "Ki", "setting": "[1]", "result": 1100, "unit": "nM"}, {"measurement": "mode of inhibition (Reversible / Irreversible)", "setting": "[1]", "result": "Reversible"}]}, {"smiles": "CC(=O)C1CCC2C3CC=C=CC(=O)CCC(=O)C3CCC12C", "note": "(centres unmarked) [(2)]", "values": [{"measurement": "Ki", "setting": "[1]", "result": 1000, "unit": "nM"}, {"measurement": "mode of inhibition (Reversible / Irreversible)", "setting": "[1]", "result": "Irreversible"}]}, {"smiles": "CC(C)N(C(=O)[C@H]1CCC2C3CCc4cc(P(=O)(O)O)ccc4C3CCC21C)C(C)C", "note": "(stereo partly drawn) [Example 1, 17β-(N,N-Diisopropylcarboxamide)-estr-1,3,5(10)-triene-3-phosphonic Acid]", "values": [{"measurement": "Ki", "setting": "[3]", "result": 50, "unit": "nM"}]}]}
